From patent publication US4115585A, “Esters of 1-(p-hydroxyphenyl)-2-(1'-methyl-2'-phenoxyethylamino)-1-propanol” (Instituto Luso Farmaco d'Italia S.r.l., priority 1976, dated 1978)

How the values were obtained:
in vivo = settings: rat, po
Source text: According to the invention, esters I may be prepared by the esterification of the phenolic function of 1-(p-hydroxyphenyl)-2-(1'-methyl-2'-phenoxyethylamino)-1-propanol (II) with reactive derivatives like chlorides, bromides, and anhydrides of aliphatic acids of general formula III: [drawing 3] in which R1, R2, and R3 are as reported above. The esterification may be performed in an apolar solvent at reflux (such as benzene, toluene, or an analogous aromatic hydrocarbon) in the presence of an organic base like triethylamine, or in pyridine at room temperature.

[1] = Hypotensive activity (variation in pressure 1 to 2 days after insertion of a catheter in the abdominal artery, technique of Weeks and Jones); type: in vivo

| SMILES | LD50 (in vivo) [mg/kg] | Hypotensive Activity Recovery to 50% ([1]; dose 20 mg/Kg os) [min] | Hypotensive Activity Recovery to 75% ([1]; dose 20 mg/Kg os) [min] | Hypotensive Activity maximal pressure decrease ([1]; dose 20 mg/Kg os) [mm Hg] | Hypotensive Activity Recovery to 50% ([1]; dose 40 mg/Kg os) [min] | Hypotensive Activity Recovery to 75% ([1]; dose 40 mg/Kg os) [min] | Hypotensive Activity maximal pressure decrease ([1]; dose 40 mg/Kg os) [mm Hg] | Hypotensive Activity Recovery to 50% ([1]; dose 80 mg/Kg os) [min] | Hypotensive Activity Recovery to 75% ([1]; dose 80 mg/Kg os) [min] | Hypotensive Activity maximal pressure decrease ([1]; dose 80 mg/Kg os) [mm Hg] | Hypotensive Activity Recovery to 50% ([1]; dose 5 mg/Kg os) [min] | Hypotensive Activity Recovery to 75% ([1]; dose 5 mg/Kg os) [min] | Hypotensive Activity maximal pressure decrease ([1]; dose 5 mg/Kg os) [mm Hg] | Hypotensive Activity Recovery to 50% ([1]; dose 10 mg/Kg os) [min] | Hypotensive Activity Recovery to 75% ([1]; dose 10 mg/Kg os) [min] | Hypotensive Activity maximal pressure decrease ([1]; dose 10 mg/Kg os) [mm Hg] |
| --- | --- | --- | --- | --- | --- | --- | --- | --- | --- | --- | --- | --- | --- | --- | --- | --- |
| CC(COc1ccccc1)NC(C)C(O)c1ccc(OC(=O)C(C)(C)C)cc1 (stereo not drawn) [LR 693, 1-(p-α,α-dimethylpropionyloxyphenyl)-2-(1'-methyl-2'-phenoxyethylamino)-1-propanol] | > 5000 | 29.0 ± 1.0 | 60.0 ± 20.0 | 9.0±1.0 | 115.7 ± 21.9 | 311.7 ± 34.2 | 21.3±4.1 | 180.2 ± 40.7 | 384.8 ± 71.0 | 18.8±8.0 | – | – | – | – | – | – |
| CC(COc1ccccc1)NC(C)C(O)c1ccc(O)cc1 (stereo not shown) [Isoxysuprine, 1-(p-hydroxyphenyl)-2-(1'-methyl-2'-phenoxyethylamino)-1-propanol] | – | 46.4 ± 13.8 | 110.4 ± 29.4 | 28.7±4.9 | 34.0 ± 12.8 | 197.5 ± 59.5 | 21.8±2.1 | – | – | – | 8.0 ± 3.0 | 18.5 ± 6.5 | 24.5±11.5 | 79.8 ± 32.6 | 105.0 ± 42.9 | 25.3±3.6 |
